Patent US9622481B2, “Biofilm-removing antimicrobial compositions and uses thereof” (Kane Biotech Inc., priority 2009, dated 2017)

Experiments:
Format in all cases: cell-based
Escherichia coli biofilm [1] = assay: Biofilm formation, crystal violet staining, 96-well microtiter plate (Example 7); details: reduction in biofilm formation, OD at 630 nm, 37° C., 24 hours
Procedure: (§1) An overnight broth culture of E. coli was grown in TSB and used as inoculum. 96-well microtiter plate containing TSB in the absence and presence of each compound separately (SMP or CHX) and together (SMP+CHX) were inoculated. The biofilm was grown by incubating at 37° C. for 24 hours. Growth of planktonic cells based on absorbance at 600 nm using Labsystems Multiskan Ascent microplate reader was determined. Biofilm was measured by discarding the media in the wells, rinsing the well three times with water, and staining the bound cells with crystal violet. The dye was then solubilized with 33% acetic acid, and absorbance at 630 nm was determined using a microtiter plate reader.

[2] = test system: Staphylococcus epidermidis biofilm; assay: Biofilm formation, crystal violet staining, 96-well microtiter plate (Example 9); details: reduction in biofilm formation, OD at 630 nm, 37° C., 24 hours
Procedure: as §1, with “S. epidermidis” for “E. coli”

[3] = test system: Pseudomonas aeruginosa biofilm; assay: Biofilm formation, crystal violet staining, 96-well microplate (Example 8); details: reduction in biofilm formation, OD at 630 nm, 24 hours
Procedure: An overnight broth culture of bacteria and yeast were grown in TSB and used as inoculum. 96-well microplates containing TSB (for gram-positive species and yeast) and colony forming unit antigen medium (for gram-negative bacteria) in the absence and the presence of each compound separately (SMP or CHX) and together (SMP+CHX) were inoculated. The biofilm was grown by incubating at 37° C. (for gram-positive bacteria and yeast) and 26° C. (for gram-negative bacteria) for 24 hours. Growth of planktonic cells based on absorbance at 600 nm using Labsystems Multiskan Ascent microplate reader was determined. Biofilm was measured by discarding the media in the wells, rinsing the well three times with water, and staining the bound cells with crystal violet. The dye was then solubilized with 33% acetic acid, and absorbance at 630 nm was determined using a microtiter plate reader.

Escherichia coli biofilm [4] = assay: Biofilm formation, crystal violet staining, 96-well microtiter plate (Example 4); details: reduction in biofilm formation, OD at 630 nm, 37° C., 24 hours
Procedure: as §1, with “FU)” for “CHX)”, “(SMP+FU)” for “(SMP+CHX)”

[5] = test system: Pseudomonas aeruginosa biofilm; assay: Biofilm formation, crystal violet staining, 96-well microtiter plate (Example 5); details: reduction in biofilm formation, OD at 630 nm, 37° C., 24 hours
Procedure: as §1, with “P. aeruginosa” for “E. coli”, “FU)” for “CHX)”, “(SMP+FU)” for “(SMP+CHX)”

[6] = test system: Staphylococcus epidermidis biofilm; assay: Biofilm formation, crystal violet staining, 96-well microtiter plate (Example 6); details: reduction in biofilm formation, OD at 630 nm, 37° C., 24 hours
Procedure: as §1, with “S. epidermidis” for “E. coli”, “FU)” for “CHX)”, “(SMP+FU)” for “(SMP+CHX)”

[7] = test system: Staphylococcus epidermidis biofilm; assay: Biofilm formation, crystal violet staining, 96-well microplate (Example 3); details: reduction in biofilm formation, OD at 630 nm, 37° C., 24 hours
Procedure: (§2) An overnight broth culture of S. epidermidis was grown in TSB, and used as inoculum. 96-well microplates containing TSB (for gram-positive species) in the absence and the presence of each compound (PS or BZK) separately and together (PS and BZK) were inoculated and incubated at 37° C. for 24 hours. Growth of planktonic cells based on absorbance at 600 nm using Labsystems Multiskan Ascent microplate reader was determined. Biofilm was measured by discarding the media in the wells, rinsing the well three times with water, and staining the bound cells with crystal violet. The dye was then solubilized with 33% acetic acid, and absorbance at 630 nm was determined using a microtiter plate reader.

[8] = test system: Pseudomonas aeruginosa biofilm; assay: Biofilm formation, crystal violet staining, 96-well microplate (Example 2); details: reduction in biofilm formation, OD at 630 nm, 26°, 24 hours
Procedure: as §2, with “P. aeruginosa” for “S. epidermidis”, “TSB” for “TSB,”, “colony forming antigen medium” for “TSB”, “26°” for “37° C.”

Escherichia coli biofilm [9] = assay: Biofilm formation, crystal violet staining, 96-well microplate (Example 1); details: reduction in biofilm formation, OD at 630 nm, 26° C., 24 hours
Procedure: as §2, with “E. coli” for “S. epidermidis”, “TSB” for “TSB,”, “colony forming antigen medium” for “TSB”, “26°” for “37°”

S. aureus = assay: Minimum inhibitory concentration (MIC) in 96-well microtiter plates; details: agent alone, TSB, 37° C., 24 hours
Procedure: (§3) Bacterial strains were grown overnight at 37° C. with 100 rpm shaking in Tryptic Soy Broth (TSB) and diluted to approximately 10^5 CFU/ml. Assays were conducted by methods of minimum inhibitory concentration (MIC) in 96-well microtiter plates as described previously (Amsterdam, D. 1996, In: V. Loman, Ed., “Antibiotics in laboratory medicine”, p. 52-111, Williams and Wilkins, Baltimore, M.D.). Antimicrobials PS and SNP both alone and together were serially diluted in TSB (100 μl), and 100 μl of bacterial suspension was added to each well. Plates were incubated at 37° C. for 24 hours and read at 600 nm using a microtiter plate reader (Multiskan Ascent, Labsystems, Helsinki, Finland).

Escherichia coli = assay: as above; details: agent alone, TSB, 37° C., 24 hours
Procedure: as §3

## [H]/N=C(\N/C(=N/[H])NCCCCCCNC(=N)NC(=N)Nc1ccc(Cl)cc1)Nc1ccc(Cl)cc1 [CHX, chlorhexidine]
Escherichia coli biofilm [1]; CHX 1 μg/ml alone
  Biofilm Inhibition by CHX: 0.04 OD
[2]; CHX 0.5 μg/ml alone
  Biofilm Inhibition by CHX: 0.00 OD
[3]; CHX 6 μg/ml alone
  Biofilm Inhibition by CHX: 0.66 OD

## O=c1[nH]cc(F)c(=O)[nH]1 [FU, 5-fluorouracil]
Escherichia coli biofilm [4]; FU 6.25 μg/ml alone
  Biofilm Inhibition by FU: 0.17 OD
[5]; FU 3.75 μg/ml alone
  Biofilm Inhibition by FU: 0.00 OD
[6]; FU 20 μg/ml alone
  Biofilm Inhibition by FU: 1.43 OD

## [Na+].[O-][I+3]([O-])([O-])[O-] [SMP, sodium metaperiodate]
Escherichia coli biofilm [1]; SMP 250 μg/ml alone
  Biofilm Inhibition by SMP: 0.12 OD
Escherichia coli biofilm [4]; SMP 250 μg/ml alone
  Biofilm Inhibition by SMP: 0.3 OD
[5]; SMP 250 μg/ml alone
  Biofilm Inhibition by SMP: 0.16 OD
[6]; SMP 250 μg/ml alone
  Biofilm Inhibition by SMP: 0.00 OD
[2]; SMP 250 μg/ml alone
  Biofilm Inhibition by SMP: 0.00 OD
[3]; SMP 125 μg/ml alone
  Biofilm Inhibition by SMP: 0.17 OD

## benzalkonium chloride [BZK]
[7]; BZK 0.8 μg/ml alone
  Biofilm Inhibition by BZK: 1.21 OD
[8]; BZK 12.5 μg/ml alone
  Biofilm Inhibition by BZK: 0.00 OD
Escherichia coli biofilm [9]; BZK 6 μg/ml alone
  Biofilm Inhibition by BZK: 0.14 OD

## protamine sulfate [PS]
[7]; PS 1.5 μg/ml alone
  Biofilm Inhibition by PS: 0.34 OD
S. aureus
  MIC: >200 µg/mL
Escherichia coli
  MIC: >200 µg/mL
[8]; PS 25 μg/ml alone
  Biofilm Inhibition by PS: 0.00 OD
Escherichia coli biofilm [9]; PS 12 μg/ml alone
  Biofilm Inhibition by PS: 0.04 OD
